These compounds were tested on M. abscessus (assay: Cell growth assay of M. abscessus with ABlα plus antibiotic, Fractional Inhibitory Concentration (FIC) index). Settings: antibiotic in combination with ABlα; FIG. 5.
Type: cell-based, Mycobacterium abscessus
`C[C@@H](O)[C@H]1C(=O)N2C(C(=O)[O-])=C(SC3Cn4cnc[n+]4C3)[C@H](C)[C@H]12` (stereo partly drawn) [biapenem] was tested, and the “effect on attenuation of M. abscessus growth by FIC index” value (shortened to “effect on attenuation … by FIC index”) was “synergistic”.
`NCC[C@H](O)C(=O)N[C@@H]1C[C@H](N)[C@@H](O[C@H]2O[C@H](CN)[C@@H](O)[C@H](O)[C@H]2O)[C@H](O)[C@H]1O[C@H]1O[C@H](CO)[C@@H](O)[C@H](N)[C@H]1O` [amikacin] was tested, and the “effect on attenuation … by FIC index” value was “synergistic”.
With `CO[C@@]1(NC(=O)Cc2cccs2)C(=O)N2C(C(=O)O)=C(COC(N)=O)CS[C@@H]21` [cefoxitin] the “effect on attenuation … by FIC index” value was “synergistic”.
